Measured values taken from PubChem BioAssay (NCI).
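Grown in 96-well plates, cells were treated for 48 hours with each compound at five concentrations. Insufficient inhibition: endpoint recorded as highest concentration tested. TGI: total growth inhibition.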

Experiments:
Assay in all cases: growth of human tumour cells (NCI), 48 h
HCT-15 colon = test system: HCT-15 colon
DMS 114 small cell lung = test system: DMS 114 small cell lung
SK-MEL-28 melanoma = test system: SK-MEL-28 melanoma
COLO 205 colon = test system: COLO 205 colon
ACHN renal = test system: ACHN renal
DMS 273 small cell lung = test system: DMS 273 small cell lung
HL-60(TB) leukemia = test system: HL-60(TB) leukemia
MOLT-4 leukemia = test system: MOLT-4 leukemia
SK-MEL-2 melanoma = test system: SK-MEL-2 melanoma
SF-268 CNS = test system: SF-268 CNS
MALME-3M melanoma = test system: MALME-3M melanoma
SF-295 CNS = test system: SF-295 CNS
EKVX NSCLC = test system: EKVX NSCLC
NCI-H226 lung = test system: NCI-H226 lung
NCI-H460 lung = test system: NCI-H460 lung
HOP-18 NSCLC = test system: HOP-18 NSCLC
SNB-19 CNS = test system: SNB-19 CNS
KM20L2 colon = test system: KM20L2 colon
OVCAR-5 ovarian = test system: OVCAR-5 ovarian
SN12C renal = test system: SN12C renal
M14 melanoma = test system: M14 melanoma
SW-620 colon = test system: SW-620 colon
HOP-62 NSCLC = test system: HOP-62 NSCLC
RXF 393 renal = test system: RXF 393 renal
UO-31 renal = test system: UO-31 renal
LXFL 529 NSCLC = test system: LXFL 529 NSCLC
NCI-H23 lung = test system: NCI-H23 lung
KM12 colon = test system: KM12 colon
A549 NSCLC = test system: A549 NSCLC
HT29 colon = test system: HT29 colon
CCRF-CEM leukemia = test system: CCRF-CEM leukemia
TK-10 renal = test system: TK-10 renal
IGROV1 ovarian = test system: IGROV1 ovarian
OVCAR-3 ovarian = test system: OVCAR-3 ovarian
DLD-1 colon = test system: DLD-1 colon
786-0 renal = test system: 786-0 renal
XF 498 CNS = test system: XF 498 CNS
K-562 leukemia = test system: K-562 leukemia
OVCAR-8 ovarian = test system: OVCAR-8 ovarian
SNB-75 CNS = test system: SNB-75 CNS
HCC-2998 colon = test system: HCC-2998 colon
UACC-257 melanoma = test system: UACC-257 melanoma
OVCAR-4 ovarian = test system: OVCAR-4 ovarian
LOX IMVI melanoma = test system: LOX IMVI melanoma
UACC-62 melanoma = test system: UACC-62 melanoma
SK-MEL-5 melanoma = test system: SK-MEL-5 melanoma
RXF-631 renal = test system: RXF-631 renal
RPMI-8226 leukemia = test system: RPMI-8226 leukemia
SF-539 CNS = test system: SF-539 CNS
M19-MEL melanoma = test system: M19-MEL melanoma
CAKI-1 renal = test system: CAKI-1 renal
A498 renal = test system: A498 renal
SK-OV-3 ovarian = test system: SK-OV-3 ovarian
SNB-78 CNS = test system: SNB-78 CNS
HCT-116 colon = test system: HCT-116 colon
HOP-92 NSCLC = test system: HOP-92 NSCLC
U251 CNS = test system: U251 CNS
SR leukemia = test system: SR leukemia
NCI-H522 lung = test system: NCI-H522 lung

Which TGI (HCT-15 colon) does the source give for `CCOc1ccc(NC(=O)CC2SC(=Nc3ccc(Cl)cc3)NC2=O)cc1` (configuration not stated) here?
The TGI was over 100 µM.

What about the TGI (DMS 114 small cell lung) of the same molecule?
The TGI was over 100 µM.

And the TGI (SK-MEL-28 melanoma)?
Its TGI is over 100 µM.

What about the TGI (COLO 205 colon) of the same molecule?
The TGI was over 100 µM.

What about the TGI (ACHN renal) of the same molecule?
The TGI was over 100 µM.

And the TGI (DMS 273 small cell lung)?
Its TGI is over 100 µM.

And the TGI (HL-60(TB) leukemia)?
Its TGI is 75.4 µM.

And the TGI (MOLT-4 leukemia)?
Its TGI is over 100 µM.

What about the TGI (SK-MEL-2 melanoma) of the same molecule?
Its TGI is over 100 µM.

And the TGI (SF-268 CNS)?
The TGI was over 100 µM.

And the TGI (MALME-3M melanoma)?
The TGI was over 100 µM.

What about the TGI (SF-295 CNS) of the same molecule?
The TGI was over 100 µM.

What about the TGI (EKVX NSCLC) of the same molecule?
The TGI was over 100 µM.

What about the TGI (NCI-H226 lung) of the same molecule?
Its TGI is over 100 µM.

What about the TGI (NCI-H460 lung) of the same molecule?
Its TGI is over 100 µM.

And the TGI (HOP-18 NSCLC)?
Its TGI is over 100 µM.

What about the TGI (SNB-19 CNS) of the same molecule?
The TGI was over 100 µM.

And the TGI (KM20L2 colon)?
The TGI was over 100 µM.

And the TGI (OVCAR-5 ovarian)?
Its TGI is over 100 µM.

And the TGI (SN12C renal)?
The TGI was over 100 µM.

And the TGI (M14 melanoma)?
The TGI was over 100 µM.

And the TGI (SW-620 colon)?
Its TGI is over 100 µM.

What about the TGI (HOP-62 NSCLC) of the same molecule?
The TGI was over 100 µM.

What about the TGI (RXF 393 renal) of the same molecule?
The TGI was over 100 µM.

And the TGI (UO-31 renal)?
Its TGI is over 100 µM.

What about the TGI (LXFL 529 NSCLC) of the same molecule?
The TGI was over 100 µM.

And the TGI (NCI-H23 lung)?
Its TGI is over 100 µM.

What about the TGI (KM12 colon) of the same molecule?
The TGI was over 100 µM.

And the TGI (A549 NSCLC)?
Its TGI is over 100 µM.

And the TGI (HT29 colon)?
Its TGI is over 100 µM.

What about the TGI (CCRF-CEM leukemia) of the same molecule?
Its TGI is 43.5 µM.

What about the TGI (TK-10 renal) of the same molecule?
Its TGI is over 100 µM.

And the TGI (IGROV1 ovarian)?
Its TGI is over 100 µM.

And the TGI (OVCAR-3 ovarian)?
The TGI was over 100 µM.

What about the TGI (DLD-1 colon) of the same molecule?
Its TGI is over 100 µM.

What about the TGI (786-0 renal) of the same molecule?
The TGI was over 100 µM.

And the TGI (XF 498 CNS)?
Its TGI is over 100 µM.

What about the TGI (K-562 leukemia) of the same molecule?
The TGI was 76.4 µM.

What about the TGI (OVCAR-8 ovarian) of the same molecule?
The TGI was over 100 µM.

And the TGI (SNB-75 CNS)?
Its TGI is over 100 µM.

What about the TGI (HCC-2998 colon) of the same molecule?
Its TGI is over 100 µM.

What about the TGI (UACC-257 melanoma) of the same molecule?
The TGI was over 100 µM.

And the TGI (OVCAR-4 ovarian)?
Its TGI is over 100 µM.

What about the TGI (LOX IMVI melanoma) of the same molecule?
The TGI was over 100 µM.

And the TGI (UACC-62 melanoma)?
Its TGI is over 100 µM.

And the TGI (SK-MEL-5 melanoma)?
The TGI was over 100 µM.

And the TGI (RXF-631 renal)?
Its TGI is over 100 µM.

What about the TGI (RPMI-8226 leukemia) of the same molecule?
Its TGI is over 100 µM.

What about the TGI (SF-539 CNS) of the same molecule?
Its TGI is over 100 µM.

And the TGI (M19-MEL melanoma)?
The TGI was over 100 µM.

And the TGI (CAKI-1 renal)?
The TGI was 48.8 µM.

And the TGI (A498 renal)?
The TGI was over 100 µM.

And the TGI (SK-OV-3 ovarian)?
The TGI was over 100 µM.

Which TGI (HCT-15 colon) does the source give for `O=C1OC(=O)c2c1c(-c1ccccc1)cn2-c1ccc(Cl)cc1` here?
The TGI was over 100 µM.

What about the TGI (DMS 114 small cell lung) of the same molecule?
Its TGI is over 100 µM.

And the TGI (SK-MEL-28 melanoma)?
Its TGI is over 100 µM.

And the TGI (SNB-78 CNS)?
The TGI was over 100 µM.

And the TGI (COLO 205 colon)?
Its TGI is 37.5 µM.

And the TGI (ACHN renal)?
The TGI was over 100 µM.

What about the TGI (DMS 273 small cell lung) of the same molecule?
Its TGI is over 100 µM.

What about the TGI (HL-60(TB) leukemia) of the same molecule?
Its TGI is over 100 µM.

What about the TGI (HCT-116 colon) of the same molecule?
Its TGI is over 100 µM.

What about the TGI (MOLT-4 leukemia) of the same molecule?
The TGI was over 100 µM.

And the TGI (SK-MEL-2 melanoma)?
The TGI was over 100 µM.

What about the TGI (SF-268 CNS) of the same molecule?
Its TGI is over 100 µM.

What about the TGI (MALME-3M melanoma) of the same molecule?
The TGI was over 100 µM.

And the TGI (SF-295 CNS)?
The TGI was over 100 µM.

What about the TGI (EKVX NSCLC) of the same molecule?
The TGI was over 100 µM.

And the TGI (NCI-H226 lung)?
The TGI was over 100 µM.

What about the TGI (NCI-H460 lung) of the same molecule?
Its TGI is over 100 µM.

And the TGI (HOP-18 NSCLC)?
Its TGI is over 100 µM.

What about the TGI (SNB-19 CNS) of the same molecule?
The TGI was over 100 µM.

What about the TGI (KM20L2 colon) of the same molecule?
Its TGI is over 100 µM.

What about the TGI (OVCAR-5 ovarian) of the same molecule?
Its TGI is over 100 µM.

What about the TGI (SN12C renal) of the same molecule?
The TGI was over 100 µM.

And the TGI (M14 melanoma)?
Its TGI is over 100 µM.

What about the TGI (SW-620 colon) of the same molecule?
Its TGI is over 100 µM.

What about the TGI (HOP-92 NSCLC) of the same molecule?
The TGI was over 100 µM.

And the TGI (HOP-62 NSCLC)?
Its TGI is over 100 µM.

And the TGI (UO-31 renal)?
The TGI was over 100 µM.

And the TGI (LXFL 529 NSCLC)?
Its TGI is over 100 µM.

And the TGI (NCI-H23 lung)?
Its TGI is over 100 µM.

And the TGI (KM12 colon)?
The TGI was over 100 µM.

What about the TGI (A549 NSCLC) of the same molecule?
The TGI was over 100 µM.

What about the TGI (HT29 colon) of the same molecule?
The TGI was over 100 µM.

What about the TGI (CCRF-CEM leukemia) of the same molecule?
The TGI was over 100 µM.

And the TGI (TK-10 renal)?
The TGI was over 100 µM.

And the TGI (U251 CNS)?
Its TGI is over 100 µM.

And the TGI (IGROV1 ovarian)?
The TGI was over 100 µM.

And the TGI (OVCAR-3 ovarian)?
Its TGI is over 100 µM.

What about the TGI (DLD-1 colon) of the same molecule?
The TGI was over 100 µM.

And the TGI (786-0 renal)?
Its TGI is over 100 µM.

And the TGI (XF 498 CNS)?
The TGI was over 100 µM.

What about the TGI (K-562 leukemia) of the same molecule?
The TGI was over 100 µM.

And the TGI (OVCAR-8 ovarian)?
The TGI was over 100 µM.

What about the TGI (SNB-75 CNS) of the same molecule?
Its TGI is over 100 µM.

And the TGI (HCC-2998 colon)?
The TGI was over 100 µM.

What about the TGI (UACC-257 melanoma) of the same molecule?
Its TGI is over 100 µM.

What about the TGI (LOX IMVI melanoma) of the same molecule?
The TGI was over 100 µM.

What about the TGI (SK-MEL-5 melanoma) of the same molecule?
Its TGI is 27.9 µM.

And the TGI (RXF-631 renal)?
The TGI was over 100 µM.

And the TGI (SR leukemia)?
The TGI was over 100 µM.

What about the TGI (RPMI-8226 leukemia) of the same molecule?
Its TGI is over 100 µM.

And the TGI (SF-539 CNS)?
The TGI was over 100 µM.

And the TGI (M19-MEL melanoma)?
The TGI was over 100 µM.

And the TGI (NCI-H522 lung)?
The TGI was over 100 µM.

And the TGI (SK-OV-3 ovarian)?
Its TGI is over 100 µM.
